Literature values in patent US20040176344A1, “METHOD TO TREAT PATIENTS WITH AMYOTROPHIC LATERAL SCLEROSIS AND THE LIKE” (priority 2004, published 2004).

Columns and labels:
mouse of ALS = settings: mouse model of ALS; J Neurochem 2003
[1] = acute intermittent porphyria; Khanderia 1986

Structure (SMILES) | effect on disease progression (mouse of ALS) | adverse effect that precludes prophylactic use [1]
Cl.O=C([O-])c1ccc(-c2c3nc(c(-c4ccc(C(=O)O)cc4)c4nc(c(-c5ccc(C(=O)O)cc5)c5ccc([nH]5)c(-c5ccc(C(=O)[O-])cc5)c5ccc2[n-]5)C=C4)C=C3)cc1.[Fe+3] [FeTCPP] | helpful in slowing disease progression | –
C=CC1=C(C)c2cc3[n-]c(cc4[n-]c(cc5nc(cc1n2)C(C)=C5C=C)c(C)c4CCC(=O)O)c(CCC(=O)O)c3C.O.[Fe+2] [hematin] | – | causes circulatory collapse
